Measurements published in ChEMBL document CHEMBL1149163, “Application of predictive QSAR models to database mining: identification and experimental validation of novel anticonvulsant compounds” (J Med Chem, 2004).

Legend:
[1] = Neurologic toxicity from rotarod test in rats, perorally; Value ranges from >100 to <300; type: organism-based; conditions: rat, in vivo, po
[2] = system: Mus musculus; assay: Compound was evaluated for anticonvulsant activity by maximal electroshock seizure test, intraperitoneally in mice; Value ranges from >100 […]; type: functional; conditions: ip
[3] = species on record: Rattus norvegicus; assay: Compound was evaluated for anticonvulsant activity by maximal electroshock seizure test, perorally in rats; Value ranges from >100 […]; type: functional; conditions: po
[4] = Neurologic toxicity from rotarod test in mice; Value ranges from >100 to <300; type: organism-based; conditions: mouse, in vivo
[5] = Neurologic toxicity from rotarod test in rats, perorally; type: organism-based; conditions: rat, in vivo, po
[6] = system: Mus musculus; assay: Compound was evaluated for anticonvulsant activity by maximal electroshock seizure test, intraperitoneally in mice; type: functional; conditions: ip
[7] = species on record: Rattus norvegicus; assay: Compound was evaluated for anticonvulsant activity by maximal electroshock seizure test, perorally in rats; type: functional; conditions: po
[8] = Neurologic toxicity from rotarod test in mice; type: organism-based; conditions: mouse, in vivo
[9] = system: Mus musculus; assay: Compound was evaluated for anticonvulsant activity by maximal electroshock seizure test, intraperitoneally in mice; Value ranges from >100 to <300; type: functional; conditions: ip
[10] = Neurologic toxicity from rotarod test in mice; Value ranges from >100 […]; type: organism-based; conditions: mouse, in vivo

Row | SMILES | TD50 [4] [mg/kg] | TD50 [5] [mg/kg] | ED50 [7] [mg/kg] | TD50 [8] [mg/kg] | other results
1 | CNC(=O)CNC(=O)OCc1ccccc1 | < 300 | – | – | – | TD50 [1]: > 100 mg/kg; ED50 [2]: > 100 mg/kg; ED50 [3]: < 30 mg/kg
2 | CCNCC(=O)Nc1c(C)cccc1C | – | > 500 | 11 | 50 | ED50 [6]: 18 mg/kg
3 | COCC(NC(C)=O)C(=O)N(C)Cc1ccccc1 (configuration not stated) | – | – | – | – | ED50 [9]: < 300 mg/kg
4 | Cc1cccc(NC(=O)N(C)C)c1 | < 300 | > 30 | – | – | –
5 | CN(C)C(=O)CNC(=O)OCc1ccccc1 | – | > 30 | – | 130 | –
6 | CON(C)C(=O)C(C)NC(=O)OCc1ccccc1 (configuration not stated) | < 300 | > 30 | ~30 | – | ED50 [9]: < 300 mg/kg
7 | CCN(CC)C(=O)C(C)NC(=O)OCc1ccccc1 (configuration not stated) | – | > 30 | < 30 | 130 | ED50 [6]: 74 mg/kg
8 | CCNC(=O)CNC(=O)OCc1ccccc1 | – | > 500 | – | – | TD50 [10]: < 300 mg/kg
9 | CCN(CC)C(=O)CNC(=O)OCc1ccccc1 | – | > 30 | – | 91 | –
10 | CON(C)C(=O)CNC(=O)OCc1ccccc1 | – | > 30 | – | 140 | –
